Columns and labels:
hERG channel = biological target: T1, hERG channel (Homo sapiens, UniProt Q12809); test: hERG channel inhibition assay (patch-clamp, CHO hERG cells); type: cell-based; conditions: for IC50 / IC20: CHO hERG cells, whole-cell patch-clamp; for IC20: human, CHO cells stably expressing hERG; for hERG IC20/TLR7 IC50 / hERG IC20/TLR8 IC50 / hERG IC20/TLR9 IC50: safety ratio
T1 construct: expressed in transfected cells
Protocol: hERG Channel Inhibition Assay:
The hERG K+ channels were cloned in humans and stably expressed in a CHO (Chinese hamster ovary) cell line. CHOhERG cells were used for patch-clamp (voltage-clamp, whole-cell) experiments. Cells were stimulated by a voltage pattern to activate hERG channels and conduct IKhERG Currents (rapid delayed outward rectifier potassium current of the hERG channel). After the cells were stabilized for a few minutes, the amplitude and kinetics of IKhERG were recorded at a stimulation frequency of 0.1 Hz, (6 bpm). Thereafter, the test compound was added to the preparation at increasing concentrations. For each concentration, an attempt was made to reach a steady-state effect, usually, this was achieved within 3-10 min at which time the next highest concentration was applied. The amplitude and kinetics of IKhERG are recorded in each concentration of the drug which were compared to the control values (taken as 100%). (references: Redfern W S, Carlsson L, Davis A S, Lynch W G, MacKenzie I, Palethorpe S, Siegl P K, Strang I, Sullivan A T, Wallis R, Camm A J, Hammond T G. 2003; Relationships between preclinical cardiac electrophysiology, clinical QT interval prolongation and torsade de pointes for a broad range of drugs: evidence for a provisional safety margin in drug development. Cardiovasc. Res. 58:32-45, Sanguinetti M C, Tristani-Firouzi M. 2006; hERG potassium channels and cardiac arrhythmia. Nature 440:463-469, Webster R, Leishman D, Walker D. 2002; Towards a drug concentration effect relationship for QT prolongation and torsades de pointes. Curr. Opin. Drug Discov. Devel. 5:116-26).

CYP3A4 = biological target: T2, CYP3A4 (Homo sapiens, UniProt P08684); test: CYP inhibition assay in human liver microsome, CYP3A4; type: in vitro ADME; conditions: percentage inhibition, substrate Midazolam 5 μM, <0: not or weak inhibitor
T2 construct: tissue BD-Gentest 452117; host or cells: human liver microsomes
T2 sequence (P08684 whole entry): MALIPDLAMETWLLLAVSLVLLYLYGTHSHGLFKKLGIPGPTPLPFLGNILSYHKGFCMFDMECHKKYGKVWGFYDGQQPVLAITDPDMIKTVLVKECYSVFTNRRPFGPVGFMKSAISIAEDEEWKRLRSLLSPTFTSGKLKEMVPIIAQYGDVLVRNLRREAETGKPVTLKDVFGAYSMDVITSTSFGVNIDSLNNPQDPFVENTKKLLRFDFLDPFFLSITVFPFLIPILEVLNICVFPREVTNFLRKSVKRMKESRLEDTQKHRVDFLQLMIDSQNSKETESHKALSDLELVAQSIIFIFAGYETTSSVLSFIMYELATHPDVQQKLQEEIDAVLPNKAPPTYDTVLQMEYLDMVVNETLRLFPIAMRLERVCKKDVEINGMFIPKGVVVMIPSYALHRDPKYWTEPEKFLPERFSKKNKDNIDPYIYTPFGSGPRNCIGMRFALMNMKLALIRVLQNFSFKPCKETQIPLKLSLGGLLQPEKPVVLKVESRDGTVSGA
Protocol: This is a high throughput screening assay used for assessment of reversible inhibition of CYP2C9, CYP2D6, and CYP3A4 activity of test compounds in human liver microsome (HLM) in early discovery stage.
Procedure 10 mM DMSO stock solutions of test compounds were diluted in DMSO to generate 2 mM intermediate stock solution. 250 nL of intermediate stock solution were transferred in duplicate into 3 separate 384 well microtitre plates (assay-ready plates). A mixture of HLM and each substrate was made up. 45 μL of HLM substrate mix was then transferred to each well of an assay ready plate and mixed. The negative (solvent) and positive controls (standard inhibitor for each CYP) were included in each assay ready plate. The assay ready plate was warmed to 37° C. in an incubator over 10 minutes. 5 μL pre-warmed NADPH regenerating system was added to each incubation well to start the reaction. Final incubation volume was 50 μL. The assay plate then was placed back in the 37° C. incubator. After incubation (10 minutes for CYP2D6) for 5 minutes, incubates were quenched by addition of 50 μL 100% acetonitrile containing internal standards (400 ng/mL 13C6-4′-OH-Diclofenac, 20 ng/mL D3-Dextrorphan and 20 ng/mL D4-1′OH-Midazolam). The supernatants were collected for RapidFire/MS/MS analysis.
RapidFire online solid phase extraction/sample injection system (Agilent) coupled with API4000 triple quadrupole mass spectrometer (AB Sciex) were used for sample analysis. The mobile phase composed of acetonitrile and water supplemented with 0.1% formic acid. A C4 solid phase extraction cartridge is used for sample separation. MS detection is achieved in positive ion MRM mode.
Data analysis Peak areas for substrate, metabolite and internal standard are determined using the RapidFire integrator software (version 3.6.12009.12296). Peak area ratios (PAR) of metabolite and internal standard (stable-labelled metabolite) are then calculated. The measurement window for each experiment is then defined: PAR (0% activity)=average PAR for all incubations containing concentrated inhibitor; Par (100% activity)=average PAR for all incubations containing no inhibitor (DMSO controls); % Activity (test inhibitor)=[PAR (test inhibitor)-PAR (0% activity)]/[PAR (100% activity)-PAR (0% activity)]; % Inhibition (test inhibitor)=100-% Activity (test inhibitor).

T1 sequence (Q12809 whole entry): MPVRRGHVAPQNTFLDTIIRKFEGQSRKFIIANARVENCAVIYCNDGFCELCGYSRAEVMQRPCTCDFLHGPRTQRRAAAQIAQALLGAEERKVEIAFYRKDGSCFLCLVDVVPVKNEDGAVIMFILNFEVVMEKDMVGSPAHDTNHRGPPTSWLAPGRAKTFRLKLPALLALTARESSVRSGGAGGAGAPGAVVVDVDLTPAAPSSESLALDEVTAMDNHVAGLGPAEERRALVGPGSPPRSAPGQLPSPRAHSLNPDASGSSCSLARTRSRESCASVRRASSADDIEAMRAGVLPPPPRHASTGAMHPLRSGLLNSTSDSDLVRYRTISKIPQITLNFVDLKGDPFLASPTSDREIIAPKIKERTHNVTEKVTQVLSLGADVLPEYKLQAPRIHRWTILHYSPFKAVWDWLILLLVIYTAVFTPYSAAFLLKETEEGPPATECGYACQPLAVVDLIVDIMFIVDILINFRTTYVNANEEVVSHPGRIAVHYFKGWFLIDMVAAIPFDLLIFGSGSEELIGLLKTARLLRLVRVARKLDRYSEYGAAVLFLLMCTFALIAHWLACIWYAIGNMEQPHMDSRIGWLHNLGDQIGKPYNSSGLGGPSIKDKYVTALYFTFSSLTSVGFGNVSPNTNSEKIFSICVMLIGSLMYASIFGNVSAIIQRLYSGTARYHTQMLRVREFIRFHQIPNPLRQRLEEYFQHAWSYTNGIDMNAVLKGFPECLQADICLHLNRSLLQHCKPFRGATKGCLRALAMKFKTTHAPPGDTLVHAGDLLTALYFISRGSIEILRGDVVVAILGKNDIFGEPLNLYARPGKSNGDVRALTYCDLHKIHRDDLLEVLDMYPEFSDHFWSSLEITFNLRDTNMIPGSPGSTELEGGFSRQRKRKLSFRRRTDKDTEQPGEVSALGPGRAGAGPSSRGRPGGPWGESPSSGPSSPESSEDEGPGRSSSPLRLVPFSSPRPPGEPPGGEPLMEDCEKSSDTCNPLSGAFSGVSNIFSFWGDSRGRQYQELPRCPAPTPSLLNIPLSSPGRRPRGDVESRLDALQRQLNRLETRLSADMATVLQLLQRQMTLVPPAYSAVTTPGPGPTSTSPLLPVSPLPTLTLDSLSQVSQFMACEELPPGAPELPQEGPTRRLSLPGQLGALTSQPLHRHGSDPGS

Row | SMILES | IC50 (hERG channel) [µM] | IC20 (hERG channel) [µM] | hERG IC20/TLR7 IC50 (hERG channel) | hERG IC20/TLR8 IC50 (hERG channel) | hERG IC20/TLR9 IC50 (hERG channel) | CYP (%) 3A4 (CYP3A4) [%]
1 | C[C@@H]1CN(c2ccc(C#N)n3ncc(F)c23)C[C@H](CN2CC3(C2)OCc2cc(N4CC5(CN(C)C5)C4)ccc23)O1 [Example 2, 3-fluoro-4-[(2R,6S)-2-methyl-6-[[6-(6-methyl-2,6-diazaspiro[3.3]heptan-2-yl)spiro[1H-isobenzofuran-3,3′-azetidine]-1′-yl]methyl]morpholin-4-yl]pyrazolo[1,5-a]pyridine-7-carbonitrile] | > 20 | 9.9 | 990 | 396 | 220 | 
2 | C[C@@H]1CN(c2ccc(C#N)n3nccc23)C[C@H](CN2CC3(C2)OCc2cc(N4CC5(CNCCO5)C4)ccc23)O1 [Example 7, 4-[(2R,6S)-2-methyl-6-[[6-(5-oxa-2,8-diazaspiro[3.5]nonan-2-yl)spiro[1H-isobenzofuran-3,3′-azetidine]-1′-yl]methyl]morpholin-4-yl]pyrazolo[1,5-a]pyridine-7-carbonitrile] |  |  |  |  |  | 16.5
3 | [2H]c1ccc2c(N3C[C@H](CN4CC5(C4)OCc4cc(N6C[C@H]7NCCO[C@@H]7C6)ccc45)O[C@H](C)C3)ccc(C#N)c2n1 [Example 17, 5-[(2S,6R)-2-[[6-[(4aR,7aR)-3,4,4a,5,7,7a-hexahydro-2H-pyrrolo[3,4-b][1,4]oxazin-6-yl]spiro[1H-isobenzofuran-3,3′-azetidine]-1′-yl]methyl]-6-methyl-morpholin-4-yl]-2-deuterio-quinoline-8-carbonitrile] |  |  |  |  |  | 14
4 | [2H]c1ccc2c(N3C[C@H](CN4CC5(C4)OCc4cc(N6CC(N)C6)cnc45)O[C@H](C)C3)ccc(C#N)c2n1 [Example 20, 5-[(2S,6R)-2-[[3-(3-aminoazetidin-1-yl)spiro[5H-furo[3,4-b]pyridine-7,3′-azetidine]-1′-yl]methyl]-6-methyl-morpholin-4-yl]-2-deuterio-quinoline-8-carbonitrile] |  |  |  |  |  | 40.5
5 | [2H]c1ccc2c(N3C[C@H](CN4CC5(C4)OCc4cc(N6CC(C)(N)C6)cnc45)O[C@H](C)C3)ccc(C#N)c2n1 [Example 21, 5-[(2S,6R)-2-[[3-(3-amino-3-methyl-azetidin-1-yl)spiro[5H-furo[3,4-b]pyridine-7,3′-azetidine]-1′-yl]methyl]-6-methyl-morpholin-4-yl]-2-deuterio-quinoline-8-carbonitrile] | > 20 | > 10 | >1428 | >588 | >181 | 12.5
6 | C[C@@H]1CN(c2ccc(C#N)n3ncc(F)c23)C[C@H](CN2CC3(C2)OCc2cc(N4CC(C)(N)C4)ncc23)O1 [Example 24, 4-[(2S,6R)-2-[[6-(3-amino-3-methyl-azetidin-1-yl)spiro[1H-furo[3,4-c]pyridine-3,3′-azetidine]-1′-yl]methyl]-6-methyl-morpholin-4-yl]-3-fluoro-pyrazolo[1,5-a]pyridine-7-carbonitrile] |  |  |  |  |  | −0.5

Source: patent US12421252B2, “Spiro (isobenzofuranazetidine) compounds for the treatment of autoimmune disease” (Hoffmann-La Roche Inc., priority 2020, dated 2025)
